Consider two molecules from patent US6855828B1, “Detection of hypoxia” (The Trustees of the University of Pennsylvania, priority 1992, dated 2005).

Data set [1] has as its system existing antibodies (to EF5 and EF3). Description: Affinity of existing antibodies towards EF1. It is filed as binding.
Data set [2] is described as follows: Tissue distribution of [^18F]-EF1 in rats bearing tumors (γ-counter). It is filed as in vivo. The settings on record: tumor-bearing rat, I/V. The source says:
(§1) Q7 cells were obtained from the American Type Culture Collection (ATCC). They were maintained in exponential growth by transfers at 3.5 day intervals with standard culture conditions. Growth medium was Eagle's MEM supplemented with 15% fetal calf serum and standard penicillin and streptomycin.
(§2) All animal studies conformed to the regulations of the University of Pennsylvania Institutional Animal Care and Use Committee. Male Buffalo rats (Harlan Sprague Dawley, Indianapolis, Ind., USA) were used for all studies. Donor tumors were created by injecting 1 million Q7 cells subcutaneously into the thigh region. The average growth time to achieve a 1 cm diameter tumor was 21 days. Tumors of less than 2 g were used in the experiments.
(§3) To measure the distribution of radioactive drug in various organs and tissues, the solution of [^18F]-EF1 in saline buffer was injected I/V into 2 male Buffalo rats. Animals was sacrificed and the samples of tissues were collected and weighted. The radioactivity of samples was measured by γ-counter and corrected for weight and the time of decay.
In particular, note that the density of radioactive counts closely parallels the findings from the image analysis. Results from 2 animals, are shown. PET and immunohistochemical images from both animals were very similar (data not shown)

Data set [3] in a line: Distribution of [^18F]-EF1 in murine organs and tissues. It is filed as in vivo, mice. On the set-up: Distribution in murine tissues, Kidney / Distribution in murine tissues, Heart / Distribution in murine tissues, Muscle / Distribution in murine tissues, Liver / Distribution in murine tissues, Spleen: unit not given beside the values. On the procedure: as §3
The distribution of radioactive drug in various murine organs and tissues was measured similarly to the previous example. [^18F]-EF1 was injected into 4 mice, which were sacrificed after 5 and 90 minutes and the radioactivity of tissues was measured.

The test system of a further data set is Morris 7777 hepatoma. Description: PET image of tumor-bearing rat treated with [^18F]-EF1. The settings on record: 150 minutes post injection. The data set is classed as in vivo. The protocol:
FIG. 4 illustrates a PET image of a tumor-bearing rat treated with 18-F-labeled EF1 (2-(2-nitro-1H-imidazol-1-yl)-N-3-monofluoropropyl) acetamide, 150 minutes post injection.
as §1, §2
It is believed that this is the first PET image of a rodent tumor where substantial image modifications to eliminate gut clearance effects have not been necessary.

Several values for one entry are separate records, joined by “and”; a condition that tells them apart may be missing. Equal entries are not always repeated.

Regarding `O=C(Cn1ccnc1[N+](=O)[O-])NCCCF` [EF1, (2-(2-nitro-1H-imidazol-1-yl)-N-3-monofluoropropyl) acetamide], the “Affinity of existing antibodies (to EF5 and EF3) towards compound” value in data set [1] is reported as “only a modest affinity”.

Consider `O=C(Cn1ccnc1[N+](=O)[O-])NCCCF` [[^18F]-EF1, (2-(2-nitro-1H-imidazol-1-yl)-N-3-monofluoropropyl) acetamide], for which the “Tissue distribution, Brain” value in data set [2] (3 hrs, Brain) was 0.13 % dose/gram and 0.11 % dose/gram. Further, the “Tissue distribution, Kidney” value in data set [2] (3 hrs, Kidney) is 0.54 % dose/gram and 0.29 % dose/gram. In addition, in data set [2] (3 hrs, Liver), the “Tissue distribution, Liver” value is 0.25 % dose/gram and 0.21 % dose/gram. For the same molecule, in data set [2] (3 hrs), the “Tissue distribution, Muscle” value is 0.17 % dose/gram and 0.13 % dose/gram; the “Tissue distribution, Tumor” value was 0.34 % dose/gram and 0.28 % dose/gram. Also, the “Tissue distribution, Spleen” value in data set [2] (3 hrs, Spleen) was 0.17 % dose/gram and 0.13 % dose/gram. In data set [2] (4 hrs), the “Tissue distribution, Muscle” value was 0.23 % dose/gram and 0.13 % dose/gram; the “Tissue distribution, Tumor” value was 0.64 % dose/gram and 0.44 % dose/gram. The “Density of label in mouse-brain tissue compared with other organs” value in data set [3] (early times) is reported as “substantially lower densities”. In data set [3] (mouse, 5 minutes), the “Distribution in murine tissues, Blood” value was 0.041 and 0.038; the “Distribution in murine tissues, Brain” value stood at 0.004; the “Distribution in murine tissues, Heart” value is 0.041 and 0.052; the “Distribution in murine tissues, Intestine” value is 0.037 and 0.039. Besides, in data set [3] (mouse, 5 minutes), the “Distribution in murine tissues, Kidney” value is 0.072 and 0.044; the “Distribution in murine tissues, Liver” value was 0.064 and 0.050; the “Distribution in murine tissues, Lung” value was 0.052 and 0.046; the “Distribution in murine tissues, Muscle” value is 0.038 and 0.031. For the same molecule, in data set [3] (mouse, 5 minutes), the “Distribution in murine tissues, Spleen” value was 0.034 and 0.035; the “Distribution in murine tissues, Stomach” value was 0.013; the “Distribution in murine tissues, Tibia” value is 0.045 and 0.042; the “Distribution in murine tissues, Urine” value is listed as 0.045. In addition, the “Distribution in murine tissues, Cecum” value in data set [3] (mouse, 5 minutes, Cecum) is 0.022 and 0.023. For the same molecule, in data set [3] (mouse, 90 minutes), the “Distribution in murine tissues, Blood” value is 0.005 and 0.007; the “Distribution in murine tissues, Brain” value was 0.003 and 0.005; the “Distribution in murine tissues, Heart” value is 0.006 and 0.009; the “Distribution in murine tissues, Intestine” value was 0.014 and 0.012. In data set [3] (mouse, 90 minutes), the “Distribution in murine tissues, Kidney” value was 0.011 and 0.015; the “Distribution in murine tissues, Liver” value was 0.016 and 0.020; the “Distribution in murine tissues, Lung” value is 0.007 and 0.005; the “Distribution in murine tissues, Muscle” value is 0.005 and 0.009. In data set [3] (mouse, 90 minutes), the “Distribution in murine tissues, Spleen” value was 0.005 and 0.007; the “Distribution in murine tissues, Stomach” value was 0.007 and 0.009; the “Distribution in murine tissues, Tibia” value is 0.079 and 0.064; the “Distribution in murine tissues, Urine” value is 0.595 and 0.786. Besides, the “Distribution in murine tissues, Esophagus” value in data set [3] (mouse, 90 minutes, Esophagus) was found to be 0.012. The “Distribution in murine tissues, Tail” value in data set [3] (mouse, 90 minutes, Tail) is 0.071 and 0.051. Moreover, in the data set on Morris 7777 hepatoma, the “Visibility of tumor in PET image” value is “clearly visible”.
